Data from article PMC8812735, “Discovery of triterpenoids as potent dual inhibitors of pancreatic lipase and human carboxylesterase 1” (Journal of Enzyme Inhibition and Medicinal Chemistry, 2022).

Columns and labels:
[1] = target: dipeptidyl peptidase-IV (DPP-IV) (Homo sapiens, UniProt P27487); test: Inhibition of DPP-IV-mediated GP-BAN hydrolysis; format: biochemical; conditions: substrate: GP-BAN
Procedure: The details for DPP-IV inhibition has been reported previously[49]^,[50]. The fluorescent signal of the hydrolytic product (BAN) was measured by a fluorescence microplate reader at an excitation wavelength of 430 nm, an emission wavelength of 535 nm (gain = 500).

Pancreatic lipase (PL) = target: T1, Pancreatic lipase (PL) (Sus scrofa, UniProt P00591); test: Inhibition of PL-mediated 4-MUO hydrolysis; format: biochemical; conditions: for Inhibition mode PL / Ki / IC50: 4-MUO substrate; for Ki: Lineweaver–Burk second plot; for IC50: mean ± SD (n = 3); for Reversibility of PL inhibition: dose-response curves not affected by pre-incubation times
T1 construct: purchased Sigma Aldrich type II, Lot.SLBN9099V
T1 sequence (P00591 1-450): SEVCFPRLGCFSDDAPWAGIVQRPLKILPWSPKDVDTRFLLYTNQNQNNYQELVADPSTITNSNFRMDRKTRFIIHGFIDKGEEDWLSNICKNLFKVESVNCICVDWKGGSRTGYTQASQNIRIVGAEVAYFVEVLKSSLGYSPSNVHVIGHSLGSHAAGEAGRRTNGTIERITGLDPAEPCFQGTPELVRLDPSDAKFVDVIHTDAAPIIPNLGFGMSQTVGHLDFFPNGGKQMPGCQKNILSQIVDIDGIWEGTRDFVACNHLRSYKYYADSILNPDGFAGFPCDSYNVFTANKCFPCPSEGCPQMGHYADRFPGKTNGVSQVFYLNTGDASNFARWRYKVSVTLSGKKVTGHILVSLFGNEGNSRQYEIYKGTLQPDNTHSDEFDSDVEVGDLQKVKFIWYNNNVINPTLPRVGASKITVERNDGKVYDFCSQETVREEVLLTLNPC
Procedure: In addition, the background fluorescence in the absence of an enzyme source (PL) (add the same amount of citrate-Na2HPO4 buffer) was measured. […] Then start the reaction by adding 2 µL of 4-MUO probe (3 µM, final concentration). The fluorescence signal of 4-MU (hydrolytic metabolite) was detected by multi-mode microplate reader (SpectraMax M4, Molecular Devices, Urstein, Austria) with continuous oscillation for 20 min and recorded and analysed at 60 s intervals. The excitation wavelength and emission wavelength of 4-MU were set at 340 nm and 460 nm, respectively, and the gain value was 500.
Subsequently, various concentrations of substrates (selected according to Km) and different concentrations of inhibitors were used to determine the corresponding reaction rate, and the second slope graph of the Lineweaver–Burk diagram was used as a function of the inhibitor to calculate the corresponding inhibition constant (Ki) value. All kinetic data were fitted by the following kinetic equations (a–c), for competitive (a), non-competitive (b) and mixed inhibition (c): (a) V=(VmaxS)/[Km(1+I/Ki)+S] (b) V=(VmaxS)/[(Km+S)×(1+I/Ki)] (c) V=(VmaxS)/[(Km+S)×(1+I/αKi)] where V is the hydrolytic velocity of the reaction, Vmax is the maximum velocity. S and I are substrate (4-MUO, NLMe) and inhibitor (compound 39/41) concentrations, respectively. Ki is the inhibition constant of the tested inhibitor against the target PL and hCES1A; Km is the Michaelis constant (the substrate concentration at half of the Vmax).
All measurements were made in triplicate and the data obtained in the experiment were shown as mean ± SD.

3T3-L1 cells = test: Cytotoxicity assay (CCK-8) in 3T3-L1 cells; format: cell-based; conditions: CCK-8, 48 h, 0–100 µM
Procedure: The effect of compounds 39 and 41 on cell viability of the 3T3-L1cells was measured using Cell Counting Kit-8 (Dalian Meilun Biotechnology Co., Ltd., Dalian, China). Briefly, 3T3-L1 cells (5 × 10^4/mL, 100 µL) were seeded in the 96-well plate, After 24 h incubation, then the cells were treated with different concentrations of compounds 39 and 41 (0–100 µM) for another 48 h. Then, CCK-8 (10%, v/v, 100 µL) was added to each well and incubated at 37 °C for additional 2 h. The absorbance was determined by microplate reader at 450 nm. The percentage of cell viability was calculated towards control. Each condition included replicate wells with at least four independent repeats.

hCES2A = target: T2, hCES2A (Homo sapiens, UniProt O00748); test: Inhibition of hCES2A-mediated FD hydrolysis; format: biochemical; conditions: FD substrate, mean ± SD (n = 3); read-out: IC50 (µM) hCES2A
T2 sequence (O00748 27-559): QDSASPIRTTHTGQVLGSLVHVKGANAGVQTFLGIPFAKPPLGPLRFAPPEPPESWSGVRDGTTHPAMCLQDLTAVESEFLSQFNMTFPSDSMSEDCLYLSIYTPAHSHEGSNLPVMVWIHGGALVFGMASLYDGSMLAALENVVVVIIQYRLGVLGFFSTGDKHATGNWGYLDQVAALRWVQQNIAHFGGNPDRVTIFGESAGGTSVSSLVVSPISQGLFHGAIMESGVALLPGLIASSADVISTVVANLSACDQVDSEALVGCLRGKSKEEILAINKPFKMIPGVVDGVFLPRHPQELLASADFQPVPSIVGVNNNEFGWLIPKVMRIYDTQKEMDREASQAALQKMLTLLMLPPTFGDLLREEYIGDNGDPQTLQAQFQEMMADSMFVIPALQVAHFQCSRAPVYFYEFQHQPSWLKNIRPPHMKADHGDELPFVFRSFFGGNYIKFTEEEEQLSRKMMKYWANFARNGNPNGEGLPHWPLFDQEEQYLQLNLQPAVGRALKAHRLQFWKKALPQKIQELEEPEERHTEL
Description: […] (FD) was used as the hCES2A specific probe substrate to assay the inhibitory effect of natural triterpenoids on hCES2A. The entire detailed operation process refers to the previously reported method, and finally the FD mixture was put into the multi-mode microplate reader for analysis and detection.

Chain of dipeptidyl peptidase-IV (DPP-IV) (P27487 whole entry): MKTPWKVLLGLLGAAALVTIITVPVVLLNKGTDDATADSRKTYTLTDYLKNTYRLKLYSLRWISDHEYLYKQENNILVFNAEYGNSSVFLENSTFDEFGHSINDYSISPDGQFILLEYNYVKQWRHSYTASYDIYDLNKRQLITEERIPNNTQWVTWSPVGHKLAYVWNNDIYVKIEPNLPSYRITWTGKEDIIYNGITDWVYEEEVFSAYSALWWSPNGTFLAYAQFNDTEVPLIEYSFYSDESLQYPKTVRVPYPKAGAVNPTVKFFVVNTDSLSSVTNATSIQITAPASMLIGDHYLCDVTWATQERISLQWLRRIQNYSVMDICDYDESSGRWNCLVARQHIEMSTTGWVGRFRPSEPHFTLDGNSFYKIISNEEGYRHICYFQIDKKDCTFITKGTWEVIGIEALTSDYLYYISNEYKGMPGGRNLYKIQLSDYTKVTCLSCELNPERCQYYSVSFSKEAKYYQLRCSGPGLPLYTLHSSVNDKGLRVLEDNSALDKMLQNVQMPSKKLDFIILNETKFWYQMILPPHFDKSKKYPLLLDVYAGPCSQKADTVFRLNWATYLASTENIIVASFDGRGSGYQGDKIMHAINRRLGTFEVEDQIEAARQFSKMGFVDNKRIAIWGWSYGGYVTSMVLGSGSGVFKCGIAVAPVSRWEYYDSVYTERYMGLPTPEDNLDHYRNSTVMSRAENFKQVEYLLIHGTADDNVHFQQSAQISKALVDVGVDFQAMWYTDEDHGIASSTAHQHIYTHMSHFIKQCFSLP

SMILES	IC50 [1]	Inhibition mode PL (Pancreatic lipase (PL))	Ki (Pancreatic lipase (PL))	IC50 (Pancreatic lipase (PL))	Reversibility of PL inhibition (Pancreatic lipase (PL))	concentration below which almost non-toxic to 3T3-L1 (cell viability) (3T3-L1 cells)	IC50 (hCES2A)
CC(=O)OC1CCC2(C)C(CCC3(C)C2CC=C2C4C(C)C(C)CCC4(C(=O)O)CCC23C)C1(C)C (centres unmarked) [Compound 41]	> 100 µM	Mixed	0.58 µM	0.75 ± 0.12 µM	reversible inhibitors	< 10 µM	5.02 ± 0.88 µM
CC1(C)CCC2(C(=O)O)CCC3(C)C(=CCC4C5(C)C=C(O)C(=O)C(C)(C)C5CCC43C)C2C1 (centres unmarked) [Compound 39]	> 100 µM	Mixed	1.45 µM	2.13 ± 0.19 µM	reversible inhibitors	below 20 µM	6.02 ± 0.75 µM
